Data taken from paper PMC8578206, “Green Leaf Volatile-Burst in Selaginella moellendorffii” (Frontiers in Plant Science, 2021).

Target: T1, SmHPL1b (Selaginella moellendorffii, UniProt D8RF82)
T1 construct: gene CYP74L1; full ORF from genomic DNA in pET100/D-TOPO (tag kept), E. coli BL21 Star (DE3) membrane fraction
Experiment: decrease in absorbance at […] nm
Type: biochemical
Conditions: E. coli membrane fraction, MES-KOH pH 6.0, 25 °C (methods); optimum pH 5.5

T1 sequence (D8RF82 entry or part of it): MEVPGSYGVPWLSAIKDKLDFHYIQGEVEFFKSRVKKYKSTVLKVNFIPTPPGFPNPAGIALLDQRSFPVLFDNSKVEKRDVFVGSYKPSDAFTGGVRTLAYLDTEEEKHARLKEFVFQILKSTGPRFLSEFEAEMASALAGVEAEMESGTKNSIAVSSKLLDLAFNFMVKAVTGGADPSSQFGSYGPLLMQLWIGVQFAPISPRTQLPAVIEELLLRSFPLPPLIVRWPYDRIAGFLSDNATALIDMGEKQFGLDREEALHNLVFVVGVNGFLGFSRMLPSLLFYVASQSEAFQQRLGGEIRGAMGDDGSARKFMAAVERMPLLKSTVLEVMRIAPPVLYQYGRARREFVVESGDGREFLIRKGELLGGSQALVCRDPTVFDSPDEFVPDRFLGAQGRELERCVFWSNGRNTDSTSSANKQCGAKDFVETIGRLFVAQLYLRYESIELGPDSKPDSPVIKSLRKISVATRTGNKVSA

Km: 31.4 µM
SMILES: CC/C=C\C[C@@H](/C=C/C=C\CCCCCCCC(=O)O)OO [13HPOT, (9Z,11E,15Z)-13-hydroperoxyoctadeca-9,11,15-trienoic acid]
